US20040097454A1, “Method for modulation of cell phenotype” (University Technology Corporation, priority 1999, published 2004)

Tests used:
[1] = tested on: bovine aorta smooth muscle cells (BASMC); experiment: BASMC morphology and α SM actin content on PKA inhibition; type: cell-based
Text: To confirm literature reports of the importance of cAMP for the smooth muscle cell (SMC) phenotype, bovine aorta smooth muscle cells (BASMC) were examined for changes in morphology and migration upon modulation of PKA activity. These cells are from a single vascular bed and harvested from an ingrown strain of cattle. BASMC are an established model of vascular smooth muscle tissue in culture (Cucina et al., 1999, J. Surg. Res., 82:61-66; Frid et al., 1997, Circ. Res., 81:940-952; Frid et al., Arterioscler Throb Vasc Biol 17:1203-1209,1997; Hatzi et al., 1999, Eur. J. Biochem., 260:825-832; Stenmark et al., Chest 114:82S-90S, 1998; Takahashi et al., Circ Res 84:543-550, 1999; Underwood et al., 1998, J. Vasc. Res., 35:449-460), and are useful for assessing vascular smooth muscle cell proliferation, migration and contraction. […] Specifically, H89 results in loss of SMC “spindle shape” representative of differentiated, contractile phenotype.

[2] = tested on: CREB-dependent promoter transactivation in BASMC; experiment: CREB-dependent Gal4-TKluc reporter in BASMC; type: cell-based, bovine; conditions: for CREB-dependent promoter transactivation: insulin 100 nM, glucose 25 mM
Procedure: Isoproterenol is well documented to act through cAMP, yet no studies defining its impact on CREB transactivation in SMCs have been reported. In the next experiment, the ability of ISO to drive a CREB dependent reporter construct was determined. BASMC were transfected with Gal4-TKluc plasmid containing the Gal4 promoter and a thymidine kinase enhancer upstream of the gene encoding a luciferase reporter. These cells were cotransfected with control plasmid (pUC19), a plasmid encoding the Gal4 protein alone, or plasmids encoding chimeric Gal4 proteins with either wild type CRF-B (pZI-Gal4-TKluc) or Ser 133 mutated CREB (SeYI33). […] Of note, basal PKA mediated CRE reporter transcription is very high in these cells and is blocked by the PKA inhibitor H89.

P-CREB/CREB in BASMC = experiment: Acute CREB phosphorylation in BASMC; type: cell-based, bovine; conditions: acute treatment, confluent BASMC serum starved 48 hours
Procedure: A series of experiments was performed to determine the ability of insulin, IGF-1 and ISO to acutely enhance CREB phosphorylation in BASMC. BASMC were grown to confluence, ss for 48 hours, and acutely treated with insulin, IGF-1, or Iso in the concentrations noted in FIG. 12A-12C.

BASMC migration = experiment: SMC migration, Boyden chamber; type: cell-based, bovine; conditions: high glucose 25 mM vs 5 mM, 48 h
Procedure: BASMC were grown to 70% confluence and serum starved for 48 hours. Cells were then treated with 0.1 uM PDGF and assessed for thymidine incorporation (FIG. 10A) and migration (FIG. 10B) as follows. […] Migratory behavior of SMC cells was assessed using a 12 well micro-Boyden chamber apparatus (Transwell Apparatus, Costar, Corning, N.Y.). […] Wells were covered with a Type I collagen-coated PVP-free filter with 8 mm pores (Transwell Apparatus, Costar, Corning, N.Y.). Trypsinized cells were resuspended in serum-free medium containing either chemotactic compounds or vehicle, and plated at a density of 25,000 or 50,000 cells per well in a volume of 100 μL. At the end of the incubation, cells attached to the filter were fixed and stained in Dif Quick (American flospital Supply Corp., McGraw Park, Ill.).

ICER in BASMC = experiment: ICER protein and mRNA content in BASMC exposed to glucose and insulin; type: cell-based, bovine; conditions: for ICER protein content: 72 hour; for ICER mRNA: glucose (5 and 25 mM) and insulin (3 and 100 nM), 72 h
Procedure: Next, BASMCs were exposed to either 3 nM or 100 nM insulin for 72 hours and analyzed for mRNA content of ICER. ICER protein was induced by physiological doses of glucose and insulin. […] BASMC were cultured to 90% confluence and treated with glucose (5 and 25 mM) and insulin ([…]) for 72 h. Total RNA was isolated from these cells using Qiagen's RNeasy kit. RNA samples were fractionated on denaturing 1.2% agarose-formaldehyde gels and transferred to Hybond N+ membrane. ICER IIγ CDNA probe was labeled with thermostable alkaline phosphatase using the AlkPhos-Direct kit from Amersham Lifesciences (Buckinghamshire, England). Hybridization, washing and detection by CDP-Star were performed according to manufacturer's protocol.

CREB in BASMC = experiment: CREB content and phosphorylation in BASMC exposed to high glucose or high insulin; type: cell-based, bovine; conditions: 72 hours exposure
Procedure: Studies were undertaken in BASMC to examine the impact of high glucose (HG) and/or high insulin (HI) on CREB and ICER content. BASMC were grown to confluence, ss for 24 hours, then treated with the concentrations of insulin and/or glucose.

[3] = tested on: NIH 3T3-L1 preadipocyte cell lines; experiment: Adipocyte differentiation assay, Oil Red O staining of triacylglycerol; type: cell-based
Procedure: Differentiation assays were performed on cells growing on 8 chamber microscope slides. […] The cells were treated with a differentiation mixture, muristerone, or both. […] Muristerone was added to medium at a final concentration of 10 uM for the entire 10 day differentiation period. After 10 days in culture, the cells were stained with Oil Red 0 to visualize triacylglycerol vesicles as previously described (Klemm et al., 1998, J. Biol. Chem., 273:917-923), and counterstained with hematoxylin to visualize cell morphology. Cells were observed by brightfield microscopy and representative fields, were photographed.

[4] = tested on: putative CRE sequences of adipocyte-specific gene promoters; experiment: Gel retardation assay of recombinant CREB with putative CRE oligonucleotides; type: binding; conditions: twenty base pair double stranded 32P-labeled oligonucleotides
Procedure: Next, the ability of purified, recombinant CREB to bind double stranded oligonucleotide probes of these sequences in gel retardation assays was tested as previously described in Klemm et al., 1998, J. Biol. Chem., 273:917-923. Twenty base pair, double stranded nucleotides, end labeled with y32P-ATP and polynucleotide kinase, were incubated with purified, recombinant 30 CREB protein. The reactions were separated on nondenaturing, 6% polyacrylamide gels and exposed to Kodak X-ARomat film. […] In these experiments, 5 ug of nuclear extract protein prepared from 3T3-L1 fibroblasts was incubated with the indicated, labeled oligonucleotides either in the absence (−) or presence (+) of CREB specific antibody. The reactions were separated on polyacrylamide gels as described above and exposed to film. […] Obviously, CREB may not bind to some of the tested sequences in the context of their native promoter environment or under conditions found within the cell. Alternately, CREB may interact with the putative CRE sites we have tested in the PPARγ2 and CEBP α promoters under different conditions, or perhaps bind to other sequences in these promoters not identified by visual inspection.

BASMC = experiment: Cell cycle phase by fluorescence flow cytometry (Krishan's stain) in BASMC with inducible WT CREB; type: cell-based, bovine; conditions: muristerone-induced expression; 0.1 or 10% serum
Procedure: BASMC were stably transfected with the muristerone-inducible wild-type CREB (WT CREB) expression vector. They were then exposed to serum at 0.1 or 10% with and with exposure to muristerone to induce CREB expression. FIGS. 8A-8D show control cells on the left and muristerone cells on the right. Cells were incubated with Krishan's stain and subjected to fluorescence flow cytometry to assess proliferative capacity to determine phase in the cell cycle. […] This peak was smaller in the cells incubated in low serum. […] The stably transfected clone served as its own control. Preliminary studies were next undertaken to investigate the impact of adenoviral infection with constitutively active CREB (adVP16 CREB) on CRE driven gene expression, proliferation, and migration.

O=S(=O)(NCCNC/C=C/c1ccc(Br)cc1)c1cccc2cnccc12 [H89]
α SM actin content ([1]; 0-10 uM, 72 hours): decreased α SM actin content | cellular morphology ([1]; 10 uM, 4, 8 and 24 hours, relative to untreated control): significant alterations in cellular morphology | basal PKA mediated CRE reporter transcription [2]: blocked | endogenous CREB kinase activity (Gal4-CREB reporter) ([2]; PKA inhibitor treatment): attenuates high endogenous CREB kinase activity

CC(C)NCC(O)c1ccc(O)c(O)c1 (centres unmarked) [Iso, Isoproterenol]
P-CREB/CREB content (P-CREB/CREB in BASMC): acutely increases P-CREB/CREB content

OC[C@H]1OC(O)[C@H](O)[C@@H](O)[C@@H]1O (some centres unmarked) [glucose]
cell migration in Boyden Chamber (BASMC migration): increased cell migration | ICER protein content (ICER in BASMC): induced ICER protein | ICER mRNA (ICER in BASMC): increase in ICER mRNA | CREB phosphorylation (PCREB) (CREB in BASMC): delayed increases in PCREB | change in CREB protein content (CREB in BASMC): −32% | CREB-dependent promoter transactivation [2]: attenuates this activity

CC(C)CC[C@@H](O)[C@](C)(O)[C@H]1CC[C@@]2(O)C3=CC(=O)[C@]4(O)C[C@@H](O)[C@@H](O)C[C@]4(C)[C@H]3[C@H](O)C[C@]12C [muristerone, reference compound]
triacylglycerol accumulation (Oil Red O) in control cells ([3]; control cells (pVgRXR, pIND-LacZ), 10 uM muristerone alone, 10 days): No triacylglycerol accumulation

IGF-1: insulin growth factor I
P-CREB/CREB content (P-CREB/CREB in BASMC): acutely increases P-CREB/CREB content

Recombinant CREB: purified, recombinant CREB protein
binding to promoter probes of PEPCK, FABP, FAS, SCD and CEBP genes [4]: able to bind

WT CREB: wild-type CREB expressed from muristerone-inducible vector or adenovirus
cell cycle phase (BASMC): cell cycle arrest

insulin: insulin; high insulin (HI)
ICER protein content (ICER in BASMC): decreased ICER content | ICER mRNA (ICER in BASMC): increase in ICER mRNA | CREB phosphorylation (PCREB) (CREB in BASMC): increased CREB phosphorylation | change in CREB protein content (CREB in BASMC): −24% | P-CREB/CREB content (P-CREB/CREB in BASMC): acutely increases P-CREB/CREB content | triacylglycerol accumulation in VP16-CREB-expressing cells ([3]; muristerone induced cells also treated with insulin, versus muristerone alone): triacylglycerol accumulation was enhanced | transcriptional activation of CREB in presence of H89 ([2]; PKA inhibited with H89): clear dose-dependent transcriptional activation of CREB | CREB-dependent promoter transactivation [2]: increases CREB-dependent promoter transactivation
